Results published in patent US7902225B2, “Mycobacterial inhibitors” (Janssen Pharmaceutica NV, priority 2005, dated 2011).

These molecules were tested on M. Smegmatis ATCC607 (assay: In-vitro anti-bacterial activity against strain M. smegmatis ATCC607 (growth inhibition, Alamar Blue fluorescence)). Settings: 48 hours at 37° C.
Type: cell-based
Protocol: D.2. In-vitro Method for Testing Compounds for Anti-bacterial Activity Against Strain M. Smegmatis ATCC607. Flat-bottom, sterile 96well plastic microtiter plates were filled with 180 μl of sterile deionized water, supplemented with 0.25% BSA. Subsequently, stock solutions (7.8× final test concentration) of compounds were added in 45 μl volumes to a series of duplicate wells in column 2 so as to allow evaluation of their effects on bacterial growth. Serial five-fold dilutions (45 μl in 180 μl) were made directly in the microtiter plates from column 2 to 11 using a customised robot system (Zymark Corp., Hopkinton, Mass.). Pipette tips were changed after every 3 dilutions to minimize pipetting errors with high hydrophobic compounds. Untreated control samples with (column 1) and without (column 12) inoculum were included in each microtiter plate. Approximately 250 CFU per well of bacteria inoculum, in a volume of 100 μl in 2.8× Mueller-Hinton broth medium, was added to the rows […]. The same volume of broth medium without inoculum was added to column 12 in row A to H. The cultures were incubated at 37° C. for 48 hours in a humidified 5% CO2 atmosphere (incubator with open air valve and continuous ventilation). At the end of incubation, two days after inoculation, the bacterial growth was quantitated fluorometrically. Therefore Alamar Blue (10×) was added to all wells in a volume of 20 μl and plates were incubated for another 2 hours at […] The fluorescence was read in a computer-controlled fluorometer (Cytofluor, Biosearch) at an excitation wavelength of 530 nm and an emission wavelength of 590 nm (gain 30). The % growth inhibition achieved by the compounds was calculated according to standard methods. The pIC50 was defined as the 50% inhibitory concentration for bacterial growth.

Point of comparison: `CN(C)CCC(O)(c1cccc2ccccc12)c1cc(Br)cc2cc(Cc3ccccc3)c(N3CCC(Cc4ccccc4)CC3)nc12` (stereo not shown) [Compound 64], “M. smegmatis (pIC50)” value 5.2. Against it:
- CN(C)CCC(O)(c1ccccc1)c1cc(Br)cc2cc(Cc3ccccc3)c(N3CCN(C(=O)c4ccco4)CC3)nc12 (stereo not shown) [Compound 86] — higher, 5.7
- CN(C)CCC(O)(c1ccccc1)c1cc(Br)cc2cc(Cc3ccccc3)c(-n3cncn3)nc12 (stereo not shown) [Compound 62] — within 0.2 log units, 5.3
- COc1cc(-c2ccccc2)c2cc(C(O)(CCN(C)C)c3ccccc3)ccc2n1 (stereo not shown) [Compound 27] — the same, 5.2

Same assay, conditions: Mycolicibacterium smegmatis, 48 hours at 37° C., read-out: M. smegmatis (pIC50) (converted)

Point of comparison: `CN(C)CCC(O)(c1cccs1)c1cc(Br)cc2cc(Cc3ccccc3)c(-n3ccnc3)nc12` (stereo not shown) [Compound 53], IC50 1.26 µM. Against it:
- CN(C)CCC(O)(c1ccco1)c1cc(Br)cc2cc(-c3ccccc3)c(-n3cncn3)nc12 (stereo not shown) [Compound 68] — 25-fold higher, 31.6 µM
- COc1nc2c(C(O)(CCN(C)C)c3cccs3)cc(-c3cccnc3)cc2cc1Cc1ccccc1 (stereo not shown) [Compound 77] — 10-fold higher, 12.6 µM
- CN(C)CCC(O)(Cc1c(Cc2ccccc2)c(N2CCOCC2)nc2ccccc12)c1cc(F)cc(F)c1 (stereo not shown) [Compound 31] — the same, 1.26 µM
- CN(C)CCC(O)(c1ccccc1)c1cc(Br)cc2cc(Cc3ccccc3)c(N(C)CCc3ccccc3)nc12 (stereo not shown) [Compound 83] — within 1.5-fold, 1.58 µM
- CN(C)CCC(O)(c1cc(F)cc(F)c1)c1cc(Br)cc2cc(-c3ccccc3)c(-n3ccnc3)nc12 (stereo not shown) [Compound 44] — the same, 1.26 µM
- CN(C)CCC(O)(c1cccs1)c1cc(Br)cc2cc(Cc3ccccc3)c(N(C)C)nc12 (stereo not shown) [Compound 73] — within 1.5-fold, 1.58 µM
- CN(C)CCC(O)(c1cccc2ccccc12)c1cc(Br)cc2cc(Cc3ccccc3)c(N3CCN(C(=O)c4ccco4)CC3)nc12 (stereo not shown) [Compound 54] — the same, 1.26 µM
- CN(C)CCC(O)(c1cccc2ccccc12)c1cc(Br)cc2cc(Cc3ccccc3)c(N3CCN(C(c4ccccc4)c4ccccc4)CC3)nc12 (stereo not shown) [Compound 69] — 32-fold higher, 39.8 µM
- CN(C)CCC(O)(c1ccccc1)c1cc(Br)cc2cc(-c3ccccc3)c(-n3cncn3)nc12 (stereo not shown) [Compound 66] — 10-fold higher, 12.6 µM
- COc1nc2cccc(C(O)(CCN(C)C)c3ccco3)c2cc1-c1ccccc1 (stereo not shown) [Compound 21] — 25-fold higher, 31.6 µM
- CN(C)CCC(O)(Cc1c(Cc2ccccc2)c(N2CCCC2)nc2ccccc12)c1cc(F)cc(F)c1 (stereo not shown) [Compound 4] — 5-fold lower, 0.251 µM
- COc1nc2c(C(O)(CCN(C)C)c3cc(F)cc(F)c3)cc(Br)cc2cc1-c1ccccc1 (stereo not shown) [Compound 12] — within 1.5-fold, 1.58 µM
- CN(C)CCC(O)(c1ccccc1)c1cc2nc(N3CCN(Cc4ccccc4)CC3)c(Cc3ccccc3)cc2cc1Br (stereo not shown) [Compound 55] — the same, 1.26 µM
- CN(C)CCC(O)(Cc1c(-c2ccccc2)c(-c2ccccc2)nc2ccccc12)c1cc(F)cc(F)c1 (stereo not shown) [Compound 41] — 25-fold higher, 31.6 µM
- Cc1cc(-c2ccccc2)c2cc(C(O)(CCN(C)C)c3ccco3)ccc2n1 (stereo not shown) [Compound 6] — 25-fold higher, 31.6 µM
- CN(C)CCC(O)(c1ccccc1)c1cc(Br)cc2cc(Cc3ccccc3)c(NCCC(c3ccccc3)c3ccccc3)nc12 (stereo not shown) [Compound 88] — 2-fold higher, 2.51 µM
- CN(C)CCC(O)(c1cccc2ccccc12)c1cc(Br)cc2cc(Cc3ccccc3)c(N3CCOCC3)nc12 (stereo not shown) [Compound 51] — within 1.5-fold, 1 µM
- CN(C)CCC(O)(c1cccc2ccccc12)c1cc(Br)cc2cc(Cc3ccccc3)c(N3CCCC3)nc12 (stereo not shown) [Compound 52] — within 1.5-fold, 1 µM
- COc1nc2cccc(C(O)(CCN(C)C)c3cccc4ccccc34)c2cc1-c1ccccc1 (stereo not shown) [Compound 18] — within 1.5-fold, 1.58 µM
- CN(C)CCC(O)(c1cccc2ccccc12)c1cc(Br)cc2cc(Cc3ccccc3)c(N3CCc4ccccc4C3)nc12 (stereo not shown) [Compound 50] — 1.6-fold lower, 0.794 µM
- CN(C)CCC(O)(c1ccccc1)c1cccc2nc(N3CCN(C)CC3)c(-c3ccccc3)cc12 (stereo not shown) [Compound 37] — 63-fold higher, 79.4 µM
- CN(C)CCC(O)(c1ccccc1)c1ccc2nc(-c3cccnc3)cc(-c3ccccc3)c2c1 (stereo not shown) [Compound 71] — within 1.5-fold, 1.58 µM
- CN(C)CCC(O)(c1ccccc1)c1cc(Br)cc2cc(Cc3ccccc3)c(N3CCC(Cc4ccccc4)CC3)nc12 (stereo not shown) [Compound 84] — 1.6-fold higher, 2 µM
